Laboratory results published in the supplement of paper PMC10307832.

Key:
Assay in all cases: relative viability (nuclei count vs DMSO), 5 days (fraction); higher = more cells survive
Carboplatin + Crizotinib = compound: C1CC(C1)(C(=O)O)C(=O)O.[NH2-].[NH2-].[Pt+2] [Carboplatin] + C[C@@H](Oc1cc(-c2cnn(C3CCNCC3)c2)cnc1N)c1c(Cl)ccc(F)c1Cl [Crizotinib] (partner 1 µM)
Procedure, shortened: (§1)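 Cells from lung cancer lines were seeded into 1536-well plates and, one day later, dosed by pin tool. Treatments were either a single drug or a fixed dose of an anchor drug with five library-drug doses (not always all listed) in √10 steps. After 5 days, nuclei were stained in a one-step fixation (final 0.05% Triton X-100, 1% formaldehyde, 1 ug/ml Hoechst) and counted on 4× images, and relative viability is the treated-to-vehicle nuclei ratio, as the median of duplicate plates.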

MLN4924 + Luminespib = compound: NS(=O)(=O)OC[C@@H]1C[C@@H](n2ccc3c(N[C@H]4CCc5ccccc54)ncnc32)C[C@@H]1O [MLN4924] + CCNC(=O)c1noc(-c2cc(C(C)C)c(O)cc2O)c1-c1ccc(CN2CCOCC2)cc1 [Luminespib] (partner 0.01 µM)
Procedure, shortened: as §1

Carboplatin + Bortezomib = compound: C1CC(C1)(C(=O)O)C(=O)O.[NH2-].[NH2-].[Pt+2] [Carboplatin] + CC(C)C[C@H](NC(=O)[C@H](Cc1ccccc1)NC(=O)c1cnccn1)B(O)O [Bortezomib] (partner 0.002 µM)
Procedure, shortened: as §1

GSK126 + Decitabine = compound: CC[C@H](C)N1C=C(C2=C(C=C(C=C21)C3=CN=C(C=C3)N4CCNCC4)C(=O)NCC5=C(C=C(NC5=O)C)C)C [GSK126] + Nc1ncn([C@H]2C[C@H](O)[C@@H](CO)O2)c(=O)n1 [Decitabine] (partner 2 µM)
Procedure, shortened: as §1

Cell Line	relative viability (Carboplatin + Crizotinib; first compound 0.08 µM)	relative viability (Carboplatin + Crizotinib; first compound 0.253 µM)	relative viability (Carboplatin + Crizotinib; first compound 0.8 µM)	relative viability (Carboplatin + Crizotinib; first compound 2.53 µM)	relative viability (Carboplatin + Crizotinib; first compound 8 µM)	relative viability (MLN4924 + Luminespib; first compound 0.04 µM)	relative viability (MLN4924 + Luminespib; first compound 0.1265 µM)	relative viability (MLN4924 + Luminespib; first compound 0.4 µM)	relative viability (MLN4924 + Luminespib; first compound 1.265 µM)	relative viability (MLN4924 + Luminespib; first compound 4 µM)	relative viability (Carboplatin + Bortezomib; first compound 0.08 µM)	relative viability (Carboplatin + Bortezomib; first compound 0.253 µM)	relative viability (Carboplatin + Bortezomib; first compound 0.8 µM)	relative viability (Carboplatin + Bortezomib; first compound 2.53 µM)	relative viability (Carboplatin + Bortezomib; first compound 8 µM)	relative viability (GSK126 + Decitabine; first compound 0.08 µM)	relative viability (GSK126 + Decitabine; first compound 0.253 µM)	relative viability (GSK126 + Decitabine; first compound 0.8 µM)	relative viability (GSK126 + Decitabine; first compound 2.53 µM)	relative viability (GSK126 + Decitabine; first compound 8 µM)
HARA	1.01	1.06	0.934	0.824	0.954	0.683	0.618	0.291	0.0565	0.0527	1.06	1.13	1.09	1.01	0.939	0.628	0.629	0.403	0.519	0.402
NCI-H2347	0.903	0.697	0.635	0.571	0.632	0.397	0.351	0.575	0.332	0.255	1.22	0.815	1.13	1.05	0.768	0.478	0.588	0.607	0.567	0.648
COR-L 105	0.814	0.812	0.757	0.609	0.501	0.494	0.553	0.283	0.201	0.236	0.89	0.745	0.832	0.794	0.424	0.591	0.629	0.653	0.575	0.667
A-427	0.91	1.13	0.894	0.976	0.799	0.465	0.245	0.263	0.178	0.216	0.984	1.11	0.904	0.905	1.01	0.586	0.63	0.565	0.559	0.568
HCC-15	0.914	0.875	0.775	0.688	0.643	0.168	0.171	0.161	0.125	0.0876	1.1	1.05	0.999	0.914	0.795	0.739	0.656	0.685	0.59	0.609
NCI-H1623						0.523	0.477	0.454	0.282	0.293										
NCI-H2342						0.773	0.757	0.682	0.723	0.464						0.75	0.7	0.7	0.628	0.812
NCI-H2023	0.633	0.604	0.566	0.419	0.144	0.651	0.539	0.179	0.0673	0.0714	1.06	1.18	1.02	0.717	0.204	0.267	0.232	0.205	0.209	0.219
ABC-1	1.35	1.18	0.885	0.91	0.498	1.14	0.548	0.306	0.184	0.24	0.291	0.442	0.354	0.355	0.335	1.14	0.907	0.885	1	1
